{"source": "paper PMC5617979", "about": "“Comparative Study on Antistaphylococcal Activity of Lipopeptides in Various Culture Media” (Antibiotics, 2017)", "key": {"[1]": {"tested_on": "Staphylococcus aureus (five reference strains ATCC 25923, ATCC 6538, ATCC 6538/P, ATCC 9144, ATCC 12598 and five clinical strains)", "assay": "MIC assay, broth microdilution", "type": "cell-based", "conditions": "planktonic S. aureus, 5 × 10^5 CFU/mL, 18 h, 37 °C, Figure 1, mean MIC", "experimental": "Antimicrobial activity was determined against five reference strains: S. aureus ATCC 25923, S. aureus ATCC 6538, S. aureus ATCC 6538/P, S. aureus ATCC 9144, and S. aureus ATCC 12598, which were obtained from the Polish Collection of Microorganisms (Polish Academy of Sciences, Wroclaw), and against five clinical strains of S. aureus, which were provided by the Department of Oral Microbiology, Medical University of Gdańsk (Poland). These strains were also characterized in terms of methicillin resistance. Preliminary identification and detection was conducted on the ChromID MRSA/ChromID S. aureus biplate (bioMérieux) for simultaneous detection of S. aureus and methicillin-resistant S. aureus (MRSA). All tested strains (both reference and clinical S. aureus) were stored in cryo-vials (Roti®-Store, Carl Roth) and recultivated before all microbiological tests. All strains were cultured in three different media: Brain-Heart Infusion Broth (BHI, Biocorp, Warsaw, Poland), Mueller Hinton Broth (MH, Biocorp), and Tryptic-Soy Broth (TSB, Biocorp). Moreover, the stock solutions of lipopeptides were prepared in two different solvents: PBS and an aqueous solution of acetic acid/BSA (0.01% and 0.2% respectively). MIC was determined by broth microdilution method on polystyrene 96-well plates. Bacteria at initial inoculums of 5 × 10^5 CFU/mL were exposed to lipopeptides at concentrations ranging from 0.5 to 256 µg/mL and incubated for 18 h at 37 °C. The MIC value was taken as the lowest concentration of the compound that inhibited the growth of the microorganisms. All assays were performed in triplicate and included the growth and sterility control."}, "[2]": {"tested_on": "Staphylococcus", "conditions": "previously described compounds; cited from earlier work", "from_the_text": "All of the lipopeptides are palmitoylated at N-terminus and contain three or four basic amino acid residues. Moreover, compounds are amidated at C-termini to maximize positive charge. […] Arginine, as a basic amino acid, introduce positive charge; however, it has more hydrogen donor atoms and is more basic (pKa~1 ..."}, "[3]": {"tested_on": "Pseudomonas aeruginosa", "conditions": "cited from earlier work", "from_the_text": "(§1) It should be noted that conclusions drawn from the in vitro studies are not always consistent with those determined in vivo. Nevertheless, these “not-ideal” conditions may reveal an unexpected activity of new compounds. […] In this case, the MIC values decreased down to sixteenfold in the presence of plasma. The synergistic effect may be connected with complement proteins or clotting factors, as the a ..."}, "[4]": {"tested_on": "S. aureus", "conditions": "cited from earlier work", "from_the_text": "as §1"}, "[5]": {"tested_on": "Escherichia coli", "conditions": "cited from earlier work", "from_the_text": "as §1"}, "[6]": {"tested_on": "Enterococcus faecalis", "conditions": "cited from earlier work", "from_the_text": "as §1"}}, "note": "Positions of bridges follow the written chain, without caps; N, C: chain ends. No end group written: not given here."}
{"substance": "Pal-CKKKRC-NH2 [Pal-CKKKRC-NH2 (linear), non-cyclized palmitoylated lipopeptide amide with two cysteine residues]", "values": [{"measurement": "MIC values in BHI and TSB compared with MH (influence of medium type)", "setting": "[1]", "result": "this dependence was not observed"}]}
{"substance": "Pal-CKKRKC-NH2 (disulfide) [palmitoylated lipopeptide amide with intramolecular disulfide bridge]", "values": [{"measurement": "MIC values in BHI and TSB compared with MH (influence of medium type)", "setting": "[1]", "result": "slightly more active in MH"}]}
{"substance": "Pal-CRKKKC-NH2 (disulfide) [palmitoylated lipopeptide amide with intramolecular disulfide bridge]", "values": [{"measurement": "MIC values in BHI and TSB compared with MH (influence of medium type)", "setting": "[1]", "result": "slightly more active in MH"}]}
{"substance": "Pal-KKKK-NH2", "values": [{"measurement": "antistaphylococcal activity", "setting": "[2]", "result": "high antistaphylococcal activity"}]}
{"substance": "Pal-RRR-NH2", "values": [{"measurement": "antistaphylococcal activity", "setting": "[2]", "result": "high antistaphylococcal activity"}]}
{"substance": "protegrin-1 (RGGRLCYCRRRFCVCVGR-NH2; disulfide 8-13, 6-15; ends not checked; UniProt P32194 131-148, looked up) [antimicrobial peptide studied by Steinberg et al. (1997)]", "values": [{"measurement": "fold lowering of MIC with peptide prepared in aqueous acetic acid and BSA vs reference CLSI protocol", "setting": "[3]", "result": "up to 30 times"}, {"measurement": "fold lowering of MIC with peptide prepared in aqueous acetic acid and BSA vs reference CLSI protocol", "setting": "[4]", "result": 5, "unit": "times"}, {"measurement": "fold lowering of MIC with peptide prepared in aqueous acetic acid and BSA vs reference CLSI protocol", "setting": "[5]", "result": "up to 30 times"}, {"measurement": "fold lowering of MIC with peptide prepared in aqueous acetic acid and BSA vs reference CLSI protocol", "setting": "[6]", "result": 5, "unit": "times"}]}
